Patent US20220071932A1, “Compositions and Methods Against Stress-Induced Affective Disorders and Their Associated Symptoms” (The Trustees of Columbia University in the City of New York, priority 2019, published 2022)

Assays:
[1] = test system: 129S6/SvEv mice; test: Contextual fear conditioning (CFC), 3-shock; freezing; assay type: in vivo; conditions: for p, Freezing (%), CFC Re-exposure 2, (R,S)-ketamine vs. FENM / p, Freezing (%), CFC Re-exposure 2, Saline vs. drug: drug 5 min after re-exposure 1; for p, Freezing (%), CFC Re-exposure 2, (R,S)-ketamine vs. FENM: (R,S)-ketamine 30 mg/kg vs. FENM 20 mg/kg
Protocol: A 3-shock CFC paradigm was administered as previously described (45, 46). CFC was conducted in chambers obtained from Med Associates (St. Albans, Vt.), with internal dimensions of approximately 20 cm wide×16 cm deep×20.5 cm high. The chambers had metal walls on each side, clear plastic front and back walls and ceilings, and stainless-steel bars on the floor. A house light (CM1820 bulb, 28v, 100 mA) mounted directly above the chamber provided illumination. Each chamber was located inside a larger, insulated, plastic cabinet that provided protection from outside light and noise. Each cabinet contained a ventilation fan that was operated during the sessions. A paper towel dabbed with lemon solution was placed underneath the chamber floor. Mice were held outside the experimental room in their home cages prior to testing and transported to the conditioning apparatus individually in standard mouse cages Chambers were cleaned with 70% EtOH between each set of mice. Mice were placed into the conditioning chamber and received shocks at 180 s, 240 s, and 300 s (2 s duration, 0.75 mA). Fifteen seconds after the last shock, mice were removed from the chamber. Overall, the training session lasted 317 s. […] All sessions were scored for freezing using FreezeFrame4.

[2] = test system: NR2A subunit of the NMDAR; test: Western blotting of hippocampus after fear memory recall; assay type: in vivo, mice; conditions: one week prior to CFC, (R,S)-ketamine 30 mg/kg, FENM 20 mg/kg, vs saline
Protocol: Samples from mouse hippocampus and prefrontal cortex were dissected, snap frozen, and stored at −80° C. Brain tissue was homogenized in RIPA buffer with protease inhibitor (Thermo Fisher Scientific, Waltham, Mass.; Roche, Basel, Switzerland) using a motorized pestle mixer (Argos Technologies, Vernon Hills, Ill.) and spun at 1000 g×14 minutes to remove cell debris. Protein concentration was determined using a Bradford protein assay (Bio-Rad, Hercules, Calif.). 4× Laemmli buffer and β-mercaptoethanol (Bio-Rad, Hercules, Calif.) was added to the samples, which were then boiled at 90° C. for five minutes. 50 μg of each sample was separated by SDS/PAGE, and proteins were transferred onto PVDF membrane (GE Healthcare Life Sciences, Marlborough, Mass.). Membranes were then blocked in 1×TBS with 0.1% Tween-20 and 5% BSA for 1 hr at RT. Incubation with primary antibodies was performed at 4° C. overnight (rabbit anti-β-tubulin, 1:10000, Abc am, Cambridge, UK, ab6046; rabbit anti-NR2A, 1:1000, Alomone Labs, Jerusalem, Israel, AGC-002; rabbit anti-NR2B, 1:600, Alomone Labs, Jerusalem, Israel, AGC-003; mouse anti-GluR1, 1:1000, Millipore Sigma, Burlington, Mass., MAB2263) in 1×TBS with 0.1% Tween-20 and 5% BSA. […]

[3] = test system: 129S6/SvEv mice; test: Anxiety-like behavior, summary of anxiety tests (OF, MB, EPM); assay type: in vivo
Protocol: Testing was performed as previously described (47). Briefly, the maze is a plus-cross-shaped apparatus consisting of four arms, two open and two enclosed by walls, linked by a central platform at a height of 50 cm from the floor. Mice were individually placed in the center of the maze facing an open arm and were allowed to explore the maze for 5 min. The time spent in and the number of entries into the open arms was used as an anxiety index. Videos were scored using ANY-maze behavior tracking software (Stoelting, Wood Dale, Ill.).
The OF assay was administered as previously described (47). Briefly, motor activity was quantified in 4 Plexiglas open field boxes 43×43 cm^2 (MED Associates, Georgia, Vt.). Two sets of 16 pulse-modulated infrared photobeams on opposite walls 2.5-cm apart recorded x-y ambulatory movements. Activity chambers were computer interfaced for data sampling at 100-ms resolution. The computer defined grid lines that dividing center and surround regions, with the center square consisting of four lines 11 cm from the wall.
The MB assay was conducted in a clean cage (10.5 in×5.5 in) containing soft pliable Beta Chip bedding (Northeastern Products Corp, Warrensburg, N.Y.). The cage contained 16 marbles set up in 4 rows of 4 across. Mice were given 30 minutes to explore and bury. At the end of the assay, the percentage of marbles buried was calculated.

[4] = (R,S)-ketamine (30 mg/kg) vs. FENM (20 mg/kg), FIG. 8F
[5] = Extinction (5 min after re-exposure 1), dose 20 mg/kg
[6] = Saline vs. FENM (20 mg/kg), FIG. 8D
[7] = Saline vs. FENM (20 mg/kg), FIG. 8F
[8] = dose (20), drug 5 minutes after stress, FIG. 2C

NC12CC3CC(C1)CC(CCF)(C3)C2 [FENM, 1-amino-3-fluoroethyl-adamantane]
CFC Re-exposure 2, Freezing Min 3 (%), p (Fisher's LSD) [1, 4]: <0.0001
CFC Re-exposure 2, Freezing Min 4 (%), p (Fisher's LSD) [1, 4]: <0.0001
CFC Re-exposure 2, Freezing Min 5 (%), p (Fisher's LSD) [1, 4]: <0.0001
CFC Re-exposure 1, Freezing (%), p (Fisher's LSD) ([1]; (R,S)-ketamine (30 mg/kg) vs. FENM (20 mg/kg), after ANOVA, FIG. 8E): <0.0001
CFC Re-exposure 2, Freezing (%), p (Fisher's LSD) ([1]; (R,S)-ketamine (30 mg/kg) vs. FENM (20 mg/kg), after ANOVA, FIG. 8G): <0.0001
CFC Re-exposure 1, Freezing (%), p (Fisher's LSD) ([1]; (R,S)-ketamine (30 mg/kg) vs. FENM (20 mg/kg), after RMANOVA, FIG. 8D): <0.0001
CFC Re-exposure 2, Freezing (%), p (Fisher's LSD) ([1]; (R,S)-ketamine (30 mg/kg) vs. FENM (20 mg/kg), after RMANOVA, FIG. 8F): <0.0001
CFC Training, Freezing, p (Fisher's LSD) ([1]; (R,S)-ketamine (30 mg/kg) vs. FENM (20 mg/kg), after RMANOVA, FIG. 8 cohort): 0.0029
Behavior: Fear [1, 5]: ↓
p, Freezing (%), CFC Re-exposure 2, (R,S)-ketamine vs. FENM ([1]; Fisher's LSD after ANOVA, FIG. 4G): 0.0248
p, Freezing (%), CFC Re-exposure 2, Saline vs. drug ([1]; Fisher's LSD after ANOVA, FENM 20 mg/kg, (R,S)-ketamine 30 mg/kg, FIG. 4G): 0.0281
p, Freezing (%), CFC Re-exposure 2, (R,S)-ketamine vs. FENM ([1]; Fisher's LSD after RMANOVA, FIG. 4F): 0.0248
p, Freezing (%), CFC Re-exposure 2, Saline vs. drug ([1]; Fisher's LSD after RMANOVA, FENM 20 mg/kg, ketamine 30 mg/kg, FIG. 4F): 0.0281
p, Freezing (%), CFC Training, Saline vs. drug ([1]; Fisher's LSD after RMANOVA, drug 5 min before CFC, (R,S)-ketamine 30 mg/kg, FENM dose lies beyond the rows shown, FIG. 8B): 0.9251
Behavior: Fear ([1]; Prophylactic (5 min before stress), dose 20 mg/kg): ↑
Behavior: Fear ([1]; Prophylactic (7 days before stress), dose 20 mg/kg): ↓
Behavior: Fear ([1]; Prophylactic (7 days before stress), dose 30 mg/kg): ↓
CFC Training, Average Freezing, p (Fisher's LSD) ([1]; Saline vs. FENM (20 mg/kg), FIG. 8C): 0.9251
CFC Re-exposure 1, Freezing Min 1 (%), p (Fisher's LSD) [1, 6]: 0.0008
CFC Re-exposure 1, Freezing Min 2 (%), p (Fisher's LSD) [1, 6]: 0.0075
CFC Re-exposure 1, Freezing Min 3 (%), p (Fisher's LSD) [1, 6]: 0.1384
CFC Re-exposure 1, Freezing Min 4 (%), p (Fisher's LSD) [1, 6]: 0.7601
CFC Re-exposure 1, Freezing Min 5 (%), p (Fisher's LSD) [1, 6]: 0.4751
CFC Re-exposure 2, Freezing Min 1 (%), p (Fisher's LSD) [1, 7]: 0.5432
CFC Re-exposure 2, Freezing Min 2 (%), p (Fisher's LSD) [1, 7]: 0.0173
CFC Re-exposure 2, Freezing Min 3 (%), p (Fisher's LSD) [1, 7]: 0.0053
CFC Re-exposure 2, Freezing Min 4 (%), p (Fisher's LSD) [1, 7]: 0.3068
CFC Re-exposure 2, Freezing Min 5 (%), p (Fisher's LSD) [1, 7]: 0.3729
CFC Re-exposure 1, Freezing (%), p (Fisher's LSD) ([1]; Saline vs. FENM (20 mg/kg), after ANOVA, FIG. 8E): 0.0665
CFC Re-exposure 2, Freezing (%), p (Fisher's LSD) ([1]; Saline vs. FENM (20 mg/kg), after ANOVA, FIG. 8G): 0.0173
CFC Re-exposure 1, Freezing (%), p (Fisher's LSD) ([1]; Saline vs. FENM (20 mg/kg), after RMANOVA, FIG. 8D): 0.0665
CFC Re-exposure 2, Freezing (%), p (Fisher's LSD) ([1]; Saline vs. FENM (20 mg/kg), after RMANOVA, FIG. 8F): 0.0173
p, Fisher's PLSD Saline vs. drug, CFC Re-exposure Freezing Min 1 (%) [1, 8]: 0.1072
p, Fisher's PLSD Saline vs. drug, CFC Re-exposure Freezing Min 2 (%) [1, 8]: 0.0080
p, Fisher's PLSD Saline vs. drug, CFC Re-exposure Freezing Min 3 (%) [1, 8]: 0.1619
p, Fisher's PLSD Saline vs. drug, CFC Re-exposure Freezing Min 4 (%) [1, 8]: 0.5390
p, Fisher's PLSD Saline vs. drug, CFC Re-exposure Freezing Min 5 (%) [1, 8]: 0.8801
p, Fisher's PLSD Saline vs. drug, CFC Re-exposure Freezing (%) ([1]; dose (20), drug 5 minutes after stress, after RMANOVA, FIG. 2C): 0.1188
behavior during CFC training ([1]; one week prior to 3-shock CFC (c-fos / Western blot cohort), (R,S)-ketamine 30 mg/kg, FENM 20 mg/kg, vs saline): did not alter behavior
freezing upon re-exposure ([1]; one week prior to 3-shock CFC, re-exposed five days later, (R,S)-ketamine 30 mg/kg, FENM 20 mg/kg, vs saline): significantly reduced freezing
NR2A expression in the hippocampus [2]: comparable
behavior in all anxiety tests, with the exception of the time spent in the center of the OF ([3]; 5 min after context re-exposure 1, (R,S)-ketamine 30 mg/kg, FENM 20 mg/kg, vs saline): did not alter behavior
behavior in all anxiety tests ([3]; 5 minutes prior to context re-exposure 1 (24 h after CFC), (R,S)-ketamine 30 mg/kg, FENM 20 mg/kg, vs saline): did not alter behavior
Behavior: Anxiety-like ([3]; Antidepressant (5 min after stress), dose 20 mg/kg): ↓
Behavior: Anxiety-like ([3]; Antidepressant (5 min after stress), dose 30 mg/kg): ↓
Behavior: Anxiety-like [3, 5]: ↓
